Results: publication PMC10682951, “Structure-function and rational design of a spider toxin Ssp1a at human voltage-gated sodium channel subtypes” (Frontiers in Pharmacology, 2023)
Bridge positions count the residues as written; N and C are the ends. Peptide text beside a SMILES is read from it.

Legend:
Assay type in all cases: cell-based
hNaV1.7 = molecular target: T1, hNaV1.7 (Homo sapiens, UniProt Q15858); experiment: Automated whole-cell patch-clamp (QPatch 16X), hNaV1.7; conditions: for IC50: HEK293 cells expressing hNaV1.7 + β1 subunit, QPatch 16X, holding −80 mV, step to 0 mV, peptide incubated 2 min, 0.1% BSA, mean, SEM and n (3-9)
T1 construct: host or cells: HEK293
Outline: (§1)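 HEK293 cells stably expressing the channel (human subtypes with β1 subunit), held at −80 mV; 2 min peptide pre-incubation, then 20 ms steps to 0 mV after a 200 ms −120 mV conditioning pulse. Extracellular pH 7.3 with 20 mM TEA-Cl, CsF-based pipette solution, 0.1% BSA; IC50 from four-parameter Hill fit.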

hNaV1.2 = molecular target: T2, hNaV1.2 (Homo sapiens, UniProt Q99250); experiment: Automated whole-cell patch-clamp (QPatch 16X), hNaV1.2; conditions: for IC50: HEK293 cells expressing hNaV1.2 + β1 subunit, QPatch 16X, holding −80 mV, step to 0 mV, peptide incubated 2 min, 0.1% BSA, mean, SEM and n (2-7)
T2 construct: host or cells: HEK293
T2 sequence (Q07699 19-218): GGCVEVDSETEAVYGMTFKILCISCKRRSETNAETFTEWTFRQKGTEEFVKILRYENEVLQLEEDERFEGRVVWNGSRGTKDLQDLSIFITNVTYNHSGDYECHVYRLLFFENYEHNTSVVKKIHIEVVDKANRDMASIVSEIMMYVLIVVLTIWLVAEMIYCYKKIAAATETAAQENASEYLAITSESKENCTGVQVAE
T2 sequence (Q99250 whole entry): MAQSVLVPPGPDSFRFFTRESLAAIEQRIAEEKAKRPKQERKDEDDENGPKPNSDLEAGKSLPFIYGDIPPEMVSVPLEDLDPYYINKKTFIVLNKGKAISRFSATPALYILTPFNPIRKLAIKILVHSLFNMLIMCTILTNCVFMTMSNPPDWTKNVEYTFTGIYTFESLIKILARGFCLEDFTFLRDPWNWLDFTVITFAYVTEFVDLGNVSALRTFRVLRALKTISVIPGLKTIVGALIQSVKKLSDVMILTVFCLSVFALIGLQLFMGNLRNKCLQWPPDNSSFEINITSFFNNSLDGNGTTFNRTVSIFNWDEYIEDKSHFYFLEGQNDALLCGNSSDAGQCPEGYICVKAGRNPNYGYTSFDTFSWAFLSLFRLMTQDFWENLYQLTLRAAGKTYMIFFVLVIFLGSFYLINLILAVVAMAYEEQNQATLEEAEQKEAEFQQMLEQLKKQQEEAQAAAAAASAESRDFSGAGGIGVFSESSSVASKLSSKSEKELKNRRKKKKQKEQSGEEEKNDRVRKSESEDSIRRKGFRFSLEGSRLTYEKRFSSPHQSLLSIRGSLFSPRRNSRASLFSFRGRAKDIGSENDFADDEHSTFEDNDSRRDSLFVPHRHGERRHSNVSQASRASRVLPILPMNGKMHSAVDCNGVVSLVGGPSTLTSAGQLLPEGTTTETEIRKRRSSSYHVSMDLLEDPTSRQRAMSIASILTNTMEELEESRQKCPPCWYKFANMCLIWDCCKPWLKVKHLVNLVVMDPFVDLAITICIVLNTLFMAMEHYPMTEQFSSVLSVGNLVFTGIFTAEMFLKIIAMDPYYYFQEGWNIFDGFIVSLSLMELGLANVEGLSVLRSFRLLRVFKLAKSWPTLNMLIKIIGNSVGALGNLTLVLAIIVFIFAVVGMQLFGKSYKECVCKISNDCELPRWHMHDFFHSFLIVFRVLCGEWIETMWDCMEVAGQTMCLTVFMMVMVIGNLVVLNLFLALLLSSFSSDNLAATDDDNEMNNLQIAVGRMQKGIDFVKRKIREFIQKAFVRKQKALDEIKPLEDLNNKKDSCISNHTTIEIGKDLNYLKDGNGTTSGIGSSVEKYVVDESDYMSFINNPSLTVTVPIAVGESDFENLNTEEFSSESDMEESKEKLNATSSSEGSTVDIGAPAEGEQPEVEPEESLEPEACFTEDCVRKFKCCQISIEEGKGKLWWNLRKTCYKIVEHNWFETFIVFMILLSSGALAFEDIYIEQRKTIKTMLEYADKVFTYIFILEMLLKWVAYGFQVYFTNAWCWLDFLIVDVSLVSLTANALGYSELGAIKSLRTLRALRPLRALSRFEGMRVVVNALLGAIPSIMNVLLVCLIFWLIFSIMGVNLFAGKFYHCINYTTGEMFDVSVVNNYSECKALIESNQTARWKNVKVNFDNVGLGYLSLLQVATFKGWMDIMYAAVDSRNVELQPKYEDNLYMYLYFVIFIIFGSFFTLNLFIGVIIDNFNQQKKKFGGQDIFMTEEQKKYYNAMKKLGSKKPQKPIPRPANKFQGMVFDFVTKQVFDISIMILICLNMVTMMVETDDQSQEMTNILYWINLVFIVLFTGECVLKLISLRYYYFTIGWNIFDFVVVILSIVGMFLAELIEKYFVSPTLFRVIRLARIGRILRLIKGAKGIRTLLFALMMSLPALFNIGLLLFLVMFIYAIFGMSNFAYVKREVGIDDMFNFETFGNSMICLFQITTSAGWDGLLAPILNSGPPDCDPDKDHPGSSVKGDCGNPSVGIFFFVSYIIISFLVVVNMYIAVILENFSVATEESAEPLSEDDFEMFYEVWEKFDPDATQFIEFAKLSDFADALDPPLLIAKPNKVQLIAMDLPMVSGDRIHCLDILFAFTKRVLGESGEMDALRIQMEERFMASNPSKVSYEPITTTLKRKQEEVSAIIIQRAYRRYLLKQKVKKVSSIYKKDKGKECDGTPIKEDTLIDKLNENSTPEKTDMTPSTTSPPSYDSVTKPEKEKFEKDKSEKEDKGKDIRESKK
Outline: as §1

hNaV1.3 = molecular target: T3, hNaV1.3 (Homo sapiens, UniProt Q9NY46); experiment: Automated whole-cell patch-clamp (QPatch 16X), hNaV1.3; conditions: for IC50: HEK293 cells expressing hNaV1.3 + β1 subunit, QPatch 16X, holding −80 mV, step to 0 mV, peptide incubated 2 min, 0.1% BSA, mean, SEM and n (3-12)
T3 construct: host or cells: HEK293
T3 sequence (Q9NY46 whole entry): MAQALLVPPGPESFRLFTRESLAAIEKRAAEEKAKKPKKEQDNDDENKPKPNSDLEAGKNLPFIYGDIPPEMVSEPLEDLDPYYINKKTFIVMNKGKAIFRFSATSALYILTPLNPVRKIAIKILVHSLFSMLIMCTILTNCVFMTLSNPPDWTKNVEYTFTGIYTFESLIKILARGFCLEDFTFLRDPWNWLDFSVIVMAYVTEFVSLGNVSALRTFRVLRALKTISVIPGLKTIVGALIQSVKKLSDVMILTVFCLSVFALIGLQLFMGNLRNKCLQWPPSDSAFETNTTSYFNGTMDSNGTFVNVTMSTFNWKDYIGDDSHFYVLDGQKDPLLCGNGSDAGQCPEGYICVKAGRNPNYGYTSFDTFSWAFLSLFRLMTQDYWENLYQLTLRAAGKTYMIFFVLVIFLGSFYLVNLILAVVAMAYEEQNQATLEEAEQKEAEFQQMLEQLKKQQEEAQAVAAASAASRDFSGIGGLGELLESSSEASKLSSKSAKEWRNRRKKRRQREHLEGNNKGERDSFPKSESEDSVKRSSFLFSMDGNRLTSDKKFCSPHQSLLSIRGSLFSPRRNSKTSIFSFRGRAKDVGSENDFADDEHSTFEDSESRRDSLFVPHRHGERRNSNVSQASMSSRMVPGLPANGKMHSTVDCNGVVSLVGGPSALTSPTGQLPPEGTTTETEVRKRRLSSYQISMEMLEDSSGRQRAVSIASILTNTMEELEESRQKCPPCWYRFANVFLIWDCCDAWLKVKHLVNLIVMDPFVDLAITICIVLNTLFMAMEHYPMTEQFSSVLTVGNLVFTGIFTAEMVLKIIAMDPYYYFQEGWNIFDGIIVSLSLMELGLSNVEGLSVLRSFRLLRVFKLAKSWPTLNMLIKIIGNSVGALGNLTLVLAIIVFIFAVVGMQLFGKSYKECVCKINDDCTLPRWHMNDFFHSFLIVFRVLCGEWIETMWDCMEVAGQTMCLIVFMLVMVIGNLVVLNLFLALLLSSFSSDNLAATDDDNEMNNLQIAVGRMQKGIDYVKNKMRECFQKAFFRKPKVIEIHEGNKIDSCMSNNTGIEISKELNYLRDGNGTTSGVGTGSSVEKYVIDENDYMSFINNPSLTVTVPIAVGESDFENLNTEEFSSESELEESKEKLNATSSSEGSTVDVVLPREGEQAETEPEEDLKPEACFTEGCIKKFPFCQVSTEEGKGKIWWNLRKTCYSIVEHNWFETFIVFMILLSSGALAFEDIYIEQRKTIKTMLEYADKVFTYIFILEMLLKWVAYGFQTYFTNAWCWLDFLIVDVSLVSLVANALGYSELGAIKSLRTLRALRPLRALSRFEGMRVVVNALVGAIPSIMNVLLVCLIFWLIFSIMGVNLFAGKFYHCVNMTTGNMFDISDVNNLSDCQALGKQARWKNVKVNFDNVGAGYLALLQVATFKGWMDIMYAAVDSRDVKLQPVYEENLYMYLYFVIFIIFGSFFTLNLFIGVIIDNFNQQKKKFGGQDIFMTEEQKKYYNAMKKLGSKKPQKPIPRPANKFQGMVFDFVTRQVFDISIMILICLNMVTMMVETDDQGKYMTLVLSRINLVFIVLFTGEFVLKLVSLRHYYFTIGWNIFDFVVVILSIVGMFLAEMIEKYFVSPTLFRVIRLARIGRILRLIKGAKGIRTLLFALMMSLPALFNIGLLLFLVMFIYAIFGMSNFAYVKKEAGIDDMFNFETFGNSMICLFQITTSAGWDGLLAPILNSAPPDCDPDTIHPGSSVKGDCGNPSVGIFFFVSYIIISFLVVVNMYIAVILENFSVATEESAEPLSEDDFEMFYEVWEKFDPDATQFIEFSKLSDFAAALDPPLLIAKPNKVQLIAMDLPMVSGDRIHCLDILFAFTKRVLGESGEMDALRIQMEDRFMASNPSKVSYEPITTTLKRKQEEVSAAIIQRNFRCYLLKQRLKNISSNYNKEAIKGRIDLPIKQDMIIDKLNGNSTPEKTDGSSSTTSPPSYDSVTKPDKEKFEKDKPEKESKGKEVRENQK
T3 sequence (Q07699 19-218, further chain): as the sequence (Q07699 19-218) above
Outline: as §1

Row | Compound | IC50 (hNaV1.7) [nM] | IC50 (hNaV1.2) [nM] | IC50 (hNaV1.3) [nM] | inhibition at 3 µM (hNaV1.3; 3 µM peptide, QPatch, read-out: Inhibition (block) of hNaV1.3 at 3 µM) [%] | Loss (reduction) in potency vs rSsp1a at hNaV1.7 (hNaV1.7; relative to wild type rSsp1a) [fold] | Loss (reduction) in potency vs rSsp1a at hNaV1.2 (hNaV1.2; relative to wild type rSsp1a) [fold]
1 | CC(C)C[C@H](NC(=O)[C@H](CC(=O)O)NC(=O)[C@H](Cc1ccc(O)cc1)NC(=O)[C@H](CCCNC(=N)N)NC(=O)[C@@H]1CSSC[C@@H]2NC(=O)[C@H](CCCCN)NC(=O)[C@H](CC(N)=O)NC(=O)[C@H](CC(N)=O)NC(=O)[C@H](CC(N)=O)NC(=O)[C@@H]3CCCN3C(=O)[C@H](CC(=O)O)NC(=O)[C@@H]3CSSC[C@H](NC(=O)[C@H](C(C)C)NC(=O)[C@H](Cc4ccc(O)cc4)NC(=O)CNC(=O)[C@H](CCC(=O)O)NC(=O)[C@H](CSSC[C@H](NC(=O)[C@H](CC(=O)O)NC(=O)CN)C(=O)N[C@@H](CC(C)C)C(=O)NCC(=O)N[C@@H](Cc4c[nH]c5ccccc45)C(=O)N[C@@H](Cc4ccccc4)C(=O)N[C@@H](CO)C(=O)N[C@@H](CCCNC(=N)N)C(=O)N3)NC2=O)C(=O)N[C@@H](Cc2c[nH]cn2)C(=O)N[C@@H](Cc2c[nH]c3ccccc23)C(=O)N[C@@H](CCCCN)C(=O)N[C@@H](Cc2ccc(O)cc2)C(=O)N2CCC[C@H]2C(=O)N[C@@H](Cc2c[nH]c3ccccc23)C(=O)N1)C(=O)O [G8R] | 96 | 117 | 415 | – | – | –
2 | CC(C)C[C@H](NC(=O)[C@H](CC(=O)O)NC(=O)[C@H](Cc1ccc(O)cc1)NC(=O)[C@H](CCCNC(=N)N)NC(=O)[C@@H]1CSSC[C@@H]2NC(=O)[C@H](CCCCN)NC(=O)[C@H](CC(=O)O)NC(=O)[C@H](CC(N)=O)NC(=O)[C@H](CC(N)=O)NC(=O)[C@@H]3CCCN3C(=O)[C@H](CC(=O)O)NC(=O)[C@@H]3CSSC[C@H](NC(=O)[C@H](C(C)C)NC(=O)[C@H](Cc4ccc(O)cc4)NC(=O)CNC(=O)[C@H](CCC(=O)O)NC(=O)[C@H](CSSC[C@H](NC(=O)[C@H](CC(=O)O)NC(=O)CN)C(=O)N[C@@H](CC(C)C)C(=O)NCC(=O)N[C@@H](Cc4c[nH]c5ccccc45)C(=O)N[C@@H](Cc4ccccc4)C(=O)N[C@@H](CO)C(=O)NCC(=O)N3)NC2=O)C(=O)N[C@@H](Cc2c[nH]cn2)C(=O)N[C@@H](Cc2c[nH]c3ccccc23)C(=O)N[C@@H](CCCCN)C(=O)N[C@@H](Cc2ccc(O)cc2)C(=O)N[C@@H](CCCNC(=N)N)C(=O)N[C@@H](Cc2c[nH]c3ccccc23)C(=O)N1)C(=O)O [N14D/P27R] (H-GDCLGWFSGCDPNNDKCCEGYVCHWKYRWCRYDL-OH; disulfide 3-18, 10-23, 17-30) | 57 | 87 | > 3000 | ~40 | – | –
3 | CC(C)C[C@H](NC(=O)[C@H](Cc1ccccc1)NC(=O)[C@H](Cc1ccc(O)cc1)NC(=O)[C@H](CCCNC(=N)N)NC(=O)[C@@H]1CSSC[C@@H]2NC(=O)[C@H](CCCCN)NC(=O)[C@H](CC(N)=O)NC(=O)[C@H](CC(N)=O)NC(=O)[C@H](CC(N)=O)NC(=O)[C@@H]3CCCN3C(=O)[C@H](CC(=O)O)NC(=O)[C@@H]3CSSC[C@H](NC(=O)[C@H](C(C)C)NC(=O)[C@H](Cc4ccc(O)cc4)NC(=O)CNC(=O)[C@H](CCC(=O)O)NC(=O)[C@H](CSSC[C@H](NC(=O)[C@H](CC(=O)O)NC(=O)CN)C(=O)N[C@@H](CC(C)C)C(=O)NCC(=O)N[C@@H](Cc4c[nH]c5ccccc45)C(=O)N[C@@H](Cc4ccccc4)C(=O)N[C@@H](CO)C(=O)NCC(=O)N3)NC2=O)C(=O)N[C@@H](Cc2c[nH]cn2)C(=O)N[C@@H](Cc2c[nH]c3ccccc23)C(=O)N[C@@H](CCCCN)C(=O)N[C@@H](Cc2ccc(O)cc2)C(=O)N2CCC[C@H]2C(=O)N[C@@H](Cc2c[nH]c3ccccc23)C(=O)N1)C(=O)O [D32F] | 203 | 219 | 162 | – | – | –
4 | CC(C)C[C@H](NC(=O)[C@H](CC(=O)O)NC(=O)[C@H](Cc1ccc(O)cc1)NC(=O)[C@H](CCCNC(=N)N)NC(=O)[C@@H]1CSSC[C@@H]2NC(=O)[C@H](CCCCN)NC(=O)[C@H](CC(N)=O)NC(=O)[C@H](CC(N)=O)NC(=O)[C@H](CC(N)=O)NC(=O)[C@@H]3CCCN3C(=O)[C@H](CC(=O)O)NC(=O)[C@@H]3CSSC[C@H](NC(=O)[C@H](C(C)C)NC(=O)[C@H](Cc4ccc(O)cc4)NC(=O)CNC(=O)[C@H](CCC(=O)O)NC(=O)[C@H](CSSC[C@H](NC(=O)[C@H](CC(=O)O)NC(=O)CN)C(=O)N[C@@H](CC(C)C)C(=O)NCC(=O)N[C@@H](Cc4ccccc4)C(=O)N[C@@H](Cc4ccccc4)C(=O)N[C@@H](CO)C(=O)NCC(=O)N3)NC2=O)C(=O)N[C@@H](Cc2c[nH]cn2)C(=O)N[C@@H](Cc2c[nH]c3ccccc23)C(=O)N[C@@H](CCCCN)C(=O)N[C@@H](Cc2ccc(O)cc2)C(=O)N2CCC[C@H]2C(=O)N[C@@H](Cc2c[nH]c3ccccc23)C(=O)N1)C(=O)O [W5F] | 1260 | 579 | > 3000 | – | – | –
5 | CC(C)C[C@H](NC(=O)[C@H](CC(=O)O)NC(=O)[C@H](Cc1ccc(O)cc1)NC(=O)[C@H](CCCNC(=N)N)NC(=O)[C@@H]1CSSC[C@@H]2NC(=O)[C@H](CCCCN)NC(=O)[C@H](CC(N)=O)NC(=O)[C@H](CC(N)=O)NC(=O)[C@H](CC(N)=O)NC(=O)[C@@H]3CCCN3C(=O)[C@H](CC(=O)O)NC(=O)[C@@H]3CSSC[C@H](NC(=O)[C@H](C(C)C)NC(=O)[C@H](Cc4ccc(O)cc4)NC(=O)CNC(=O)[C@H](CCC(=O)O)NC(=O)[C@H](CSSC[C@H](NC(=O)[C@H](CC(=O)O)NC(=O)CN)C(=O)N[C@@H](CC(C)C)C(=O)NCC(=O)N[C@@H](Cc4c[nH]c5ccccc45)C(=O)N[C@@H](Cc4ccccc4)C(=O)N[C@@H](CO)C(=O)NCC(=O)N3)NC2=O)C(=O)N[C@@H](Cc2c[nH]cn2)C(=O)N[C@@H](Cc2c[nH]c3ccccc23)C(=O)N[C@@H](CCCCN)C(=O)N[C@@H](Cc2c[nH]cn2)C(=O)N2CCC[C@H]2C(=O)N[C@@H](Cc2c[nH]c3ccccc23)C(=O)N1)C(=O)O [Y26H] | 244 | 369 | 484 | – | – | –
6 | CC(C)C[C@H](NC(=O)[C@H](CC(=O)O)NC(=O)[C@H](Cc1ccc(O)cc1)NC(=O)[C@H](CCCNC(=N)N)NC(=O)[C@@H]1CSSC[C@@H]2NC(=O)[C@H](CCCCN)NC(=O)[C@H](CC(N)=O)NC(=O)[C@H](CC(N)=O)NC(=O)[C@H](CC(N)=O)NC(=O)[C@@H]3CCCN3C(=O)[C@H](CC(=O)O)NC(=O)[C@@H]3CSSC[C@H](NC(=O)[C@H](C(C)C)NC(=O)[C@H](Cc4ccc(O)cc4)NC(=O)CNC(=O)[C@H](CCC(=O)O)NC(=O)[C@H](CSSC[C@H](NC(=O)[C@H](CC(=O)O)NC(=O)CN)C(=O)N[C@@H](CC(C)C)C(=O)NCC(=O)N[C@@H](Cc4c[nH]c5ccccc45)C(=O)N[C@@H](Cc4ccccc4)C(=O)N[C@@H](CO)C(=O)NCC(=O)N3)NC2=O)C(=O)N[C@@H](Cc2c[nH]cn2)C(=O)N[C@@H](C)C(=O)N[C@@H](CCCCN)C(=O)N[C@@H](Cc2ccc(O)cc2)C(=O)N2CCC[C@H]2C(=O)N[C@@H](Cc2c[nH]c3ccccc23)C(=O)N1)C(=O)O [W24A] (H-GDCLGWFSGCDPNNNKCCEGYVCHAKYPWCRYDL-OH; disulfide 3-18, 10-23, 17-30 (inferred); N-terminus and C-terminus assumed) | > 1000 | > 1000 | > 1000 | – | ≥ 10 | ≥ 10
